Results on 54 substances are retold here after paper PMC2801521, “Correctness of Protein Identifications of Bacillus subtilis Proteome with the Indication on Potential False Positive Peptides Supported by Predictions of Their Retention Times” (Journal of Biomedicine and Biotechnology, 2009).

The data set in a line: Experimental gradient RP-LC retention time of peptides (LC-ESI-MS/MS). In kind it is physicochemical. As for the experimental part: The chromatographic analysis was performed on C-18 analytical column: XTerra MS C18 3.5 μm (2.1 × 100 mm) column (Waters, Milford, MA, USA).
The mobile phase consisted of two solvents (A and B) mixed on-line. Solvent A was 0.1% aqueous (water was MS-grade) solution of trifluoroacetic acid (TFA) (Sigma-Aldrich, Steinheim, Germany) and solvent B was acetonitrile (ACN) (MS-grade, Sigma-Aldrich, Steinheim, Germany) containing 0.1% TFA. The applied linear gradient time was 90 min, from 0% B to 60% B. The flow rate was 200 μL/min. The injection volume was 10 μL. The LC-MS apparatus was equipped with thermostated column oven and surveyor autosampler controlled at 20°C (Thermo Finnigan, San Jose, CA, USA), a quaternary gradient Surveyor MS pump (Thermo Finnigan, San Jose, CA, USA) with a diode array detection (DAD) system, and LTQ linear ion trap MS system with ESI ion source controlled by Xcalibur software 1.4 (Thermo Finnigan, San Jose, CA, USA).
The MS/MS analysis was performed on Finnigan LTQ instrument (Thermo Finnigan, San Jose, CA, USA). Mass spectra were generated in positive ion mode under constant instrumental conditions: source voltage 4.62 kV, capillary voltage 40.97 V, sheath gas flow rate 39.99 (arbitrary units), auxiliary gas flow 10 (arbitrary units), sweep gas flow 0.95 (arbitrary units), capillary temperature 219.96°C, and tube lens voltage 250.43 V. MS/MS spectra, obtained by CID (collision-induced dissociation) in the linear ion trap, were performed with an isolation width 3Da (m/z); the activation amplitude was 35% of ejection RF amplitude that corresponds to 1.58 V.
The experimental retention times of the peptides (tR exp) were determined at peak intensity maximum. The m/z values measured manually for the most intense peaks in acquired MS/MS spectra were automatically searched against the protein database (*fasta) using the Sequest Algorithm, incorporated into Bioworks 3.0 (Thermo Finningan, San Jose, CA, USA). The *fasta format for each protein was downloaded from Expasy (http://www.expasy.org/sprot/).

The mark [1] stands for this setting: experimental gradient HPLC retention time (LC-ESI-MS/MS), Table 4 test peptides.
[2] abbreviates: Table 1, model peptides, gradient RP-LC, XTerra MS C18 3.5 μm 2.1 × 100 mm, 0-60% ACN with 0.1% TFA, linear 90 min, 200 μL/min, 20°C, ESI-MS/MS, at peak intensity maximum.
[3] abbreviates: Table 5, Bacillus subtilis proteome peptides, one peptide, Xcorr below 1.5, gradient RP-LC, XTerra MS C18, 0-60% ACN with 0.1% TFA in 90 min, 200 μL/min, 20°C, ESI-MS/MS.
The mark [4] stands for this setting: Table 2, test peptides from model proteins, gradient RP-LC, XTerra MS C18, 0-60% ACN with 0.1% TFA in 90 min, 200 μL/min, 20°C, ESI-MS/MS.

As to AAEMAVARQNEQKVKK, the tR exp under setting [1] is recorded as 29.44 min.

“AAFTECCQAADK [model peptide from tryptic digest of model protein 6]” yielded a tR exp under setting [2] of 19.31 min.

For the substance AQLSEKKGADGYL, the tR exp under setting [3] worked out at 26.46 min.

In turn, “CCAAADPHECYAK [model peptide from tryptic digest of model protein 6]” came in with a tR exp under setting [2] of 16.98 min.

Substance DGITDVL yielded a tR exp under setting [3] of 93.5 min.

Regarding DGWKVCLGKVGSMDAHKVVAAIETASKKSG, the tR exp under setting [3] was found to be 37.72 min.

Consider DIMSPSR, for which the tR exp under setting [1] was found to be 14.30 min.

Take DRVFIAPVGGGPR: the tR exp under setting [1] was 29.82 min.

In the case of EAEELIPNVTTAAVK, the tR exp under setting [1] is on record as 29.18 min.

Substance EGTVIKELIGAGQLDEK returned a tR exp under setting [1] of 29.49 min.

Consider ELQEKFLIPAVEQKK, for which the tR exp under setting [1] is given as 29.27 min.

On to ELSASMG, for which the tR exp under setting [3] was determined as 18.33 min.

EPIQSFFQID returned a tR exp under setting [3] of 51.92 min.

For “ETCFAEEGKK [test peptide from tryptic digest of model protein 6]”, the tR exp under setting [4] turned out to be 16.58 min.

Take EVMIEGVLSVLEGQAPK: under setting [1], the tR exp turned out to be 29.51 min.

Take GHNPGQPEPLSGSK: the tR exp under setting [1] came to 17.05 min.

Under setting [3], GIIAAYG registered a tR exp of 89.29 min.

Regarding GNQVSENLQQAAR, the tR exp under setting [1] came to 20.52 min.

GQEQLIPPLIL gave a tR exp under setting [3] of 81.34 min.

Substance HGGSLSAPAIH registered a tR exp under setting [3] of 97.03 min.

Substance “HIIVACEGNPYVPVHFDASV [model peptide from tryptic digest of model protein 7]” gave a tR exp under setting [2] of 32.15 min.

HSSDEEPFSALAFK registered a tR exp under setting [1] of 33.16 min.

In turn, IDFPTNITMD showed a tR exp under setting [3] of 96.80 min.

As for IDIALESKK, the tR exp under setting [1] is 18.04 min.

For the substance IDNLSYYIEQEYK, under setting [1], the tR exp is listed as 30.89 min.

IGLLIFLP displayed a tR exp under setting [3] of 93.97 min.

In turn, IHTLEHLLAFTI gave a tR exp under setting [3] of 81.04 min.

Under setting [1], INIMSAR returned a tR exp of 14.23 min.

KIDKSIFPGIQGGPLMH: the tR exp under setting [3] was determined as 12.03 min.

LAAGISTI: the tR exp under setting [3] was 92.62 min.

Substance LALDLESKK gave a tR exp under setting [1] of 18.01 min.

For the substance LEIASEFGVNLGADTTSR, under setting [1], the tR exp was determined as 33.12 min.

In the case of LIDKHKKYVYHRINK, the tR exp under setting [1] is on record as 29.00 min.

Substance LNSLDSR had a tR exp under setting [1] of 14.29 min.

Under setting [3], LTELQVRHII had a tR exp of 48.06 min.

In the case of “NECFLQHK [model peptide from tryptic digest of model protein 6]”, the tR exp under setting [2] stood at 19.67 min.

On to NIAEMVK, for which, under setting [1], the tR exp was found to be 14.25 min.

With NLLFAAR, the tR exp under setting [1] came out at 14.27 min.

In the case of NRAVGFISFVI, under setting [3], the tR exp was 58.59 min.

For “NVACK [test peptide from tryptic digest of model protein 7]”, the tR exp under setting [4] amounted to 8.38 min.

Regarding PIITVAKEAWPTL, the tR exp under setting [3] was determined as 83.17 min.

Substance PQTPVP displayed a tR exp under setting [3] of 80.37 min.

Consider QDIPIEARMNEIVHSLK, for which, under setting [1], the tR exp amounted to 29.33 min.

In turn, “QHMDSSTSAASSSNYCNQMMK [model peptide from tryptic digest of model protein 7]” displayed a tR exp under setting [2] of 20.46 min.

SGETEDSTIADIAVATNAGQIK: the tR exp under setting [1] is on record as 30.05 min.

SGSIESIDVSLTDLR: the tR exp under setting [1] is recorded as 33.05 min.

Substance SHTGKAAVLNR gave a tR exp under setting [1] of 24.54 min.

As for “TCVADESAENCDK [model peptide from tryptic digest of model protein 6]”, under setting [2], the tR exp is 15.32 min.

Under setting [3], TGALIVYTSADSVLQIAAHEEVVPLEE had a tR exp of 52.12 min.

On to “VHTECCHGDLLECADDR [model peptide from tryptic digest of model protein 6]”, for which the tR exp under setting [2] came to 22.86 min.

“VHTECCHGDLLECADDRADLAK [model peptide from tryptic digest of model protein 6]” returned a tR exp under setting [2] of 24.98 min.

VVVSVNTDQDQAQAQSQDGED registered a tR exp under setting [1] of 19.37 min.

On to “YICENQDSISSK [model peptide from tryptic digest of model protein 6]”, for which the tR exp under setting [2] came to 18.06 min.

For “YPNCAYK [model peptide from tryptic digest of model protein 7]”, under setting [2], the tR exp turned out to be 16.78 min.
